Laboratory results as given in patent publication EP3744729B1, “PEPTIDES, COMPOSITIONS COMPRISING THEM AND COSMETIC AND DERMOPHARMACEUTICAL USES” (SEDERMA, priority 2009, dated 2023).
Where a SMILES comes first, the peptide text is derived from it. [ ]: non-standard residue; d: D form. The star is where a group is joined. Met(O2) = CS(=O)(=O)CC[C@H](N)C(=O)O; Palmitoyl = CCCCCCCCCCCCCCCC(=O)*; Ava = NCCCCC(=O)O

Legend:
[1] = tested on: normal human dermal fibroblasts (NHF); test: ELISA test on normal human dermal fibroblasts (NHF): macromolecules in culture supernatant; type: cell-based; settings: % difference compared to the control; for Collagen I in the dermis Test 1: Table 7; for Collagen I in the dermis: 3 days contact
Protocol: > ELISA test on normal human dermal fibroblasts (NHF)
This test examines the dermal molecules.
Normal human dermal fibroblasts are cultured in multi-well plates. The cells either are or are not placed in contact with the test substances for 3 days. The culture supernatants are removed and the quantity of macromolecules present (collagen I, fibronectin, collagen IV and hyaluronic acid) is assayed by ELISA.

[2] = tested on: dermal NHF; test: Immunostaining method on dermal NHF: collagen I (Table 7, Test 2); type: cell-based, human; settings: % difference compared to the control
Source text: Table 7 showing % differences in collagen I in the dermis compared to the control for dioxygenated peptide compounds according to the immunostaining method or to ELISA test on dermal NHF

[3] = tested on: Human Keratinocytes (HK); test: ELISA test on Human Keratinocytes (HK): macromolecules in culture supernatant; type: cell-based; settings: epidermal HK, % difference compared to the control
Protocol: > ELISA test on Human Keratinocytes (HK)
This test examines epidermal molecules.
Human keratinocytes are cultured in multi-well plates. The cells either are or are not placed in contact with the test substances for 3 days. The culture supernatants are removed and the quantity of macromolecules present (fibronectin, laminins and hyaluronic acid) is assayed by ELISA.

[4] = tested on: normal human dermal fibroblasts (NHF); test: Immunofluorescence (IMF) on normal human dermal fibroblasts (NHF): collagen III; type: cell-based; settings: 5 ppm peptide
Protocol: > Immunofluorescence (IMF) on normal human dermal fibroblasts (NHF)
This test examines dermal molecules.
Norman human fibroblasts are cultured in plates. The cells either are or are not placed in contact with the test substances for […]. The cell layers are then labeled with antibodies specifically recognizing collagen III. Photographs were used to reveal and quantify the synthesis of collagen III.

[5] = Table 5, ELISA, 5 ppm peptide, no plant

With CCCCCCCCCCCCCCCC(=O)N[C@@H](CCCCN)C(=O)N[C@H](C(=O)N[C@@H](Cc1ccccc1)C(=O)N[C@@H](CCS(C)(=O)=O)C(N)=O)[C@@H](C)O [Pal-K-T-F-MO2-NH2] (Palmitoyl-KTF[Met(O2)]-NH2) the “Collagen I in the dermis Test 1” value ([1]; 4 ppm) was “+106%”, the “Collagen I in the dermis Test 1” value ([1]; 6 ppm) was “+121%” and the “Collagen I in the dermis Test 2” value ([2]; 2 ppm) was “+267%”. For the same molecule, the “Collagen I in the dermis Test 2” value ([2]; 4 ppm) was “+420%” and the “Collagen I in the dermis Test 2” value ([2]; 6 ppm) was “+400%”.

For CCCCCCCCCCCCCCCC(=O)N[C@@H](CCCCN)C(=O)N[C@@H](CCS(C)(=O)=O)C(=O)N[C@@H](Cc1ccccc1)C(=O)N[C@@H](CCCCN)C(=O)O [Pal-K-MO2-F-K-OH] (Palmitoyl-K[Met(O2)]FK-OH), the “Collagen I in the dermis Test 1” value ([1]; 4 ppm) was “+91%”.

With CCCCCCCCCCCCCCCC(=O)N[C@@H](CCCCN)C(=O)NCCCCC(=O)N[C@@H](CCCCN)C(=O)O [Pal-K-Ava-K-OH, reference compound] the “Collagen I in the dermis Test 1” value ([1]; 4 ppm) was “+116%” and the “Collagen I in the dermis Test 1” value ([1]; 6 ppm) was “+175%”.

In the case of CCCCCCCCCCCCCCCC(=O)N[C@@H](CCCCN)C(=O)N[C@@H](CCS(C)(=O)=O)C(=O)N[C@@H](CCCCN)C(=O)O [Pal-KMO2K-OH] (Palmitoyl-Lys-[Met(O2)]-Lys-OH), the “Coll. I” value ([1]; 4 ppm peptide) is reported as “+188%”, the “Coll. IV” value ([1]; 4 ppm peptide) is reported as “+27%” and the “Collagen I in the dermis” value ([1]; 4 ppm peptide) is reported as “+188%”. The “Coll. I” value ([1]; 6 ppm peptide) was “+187%”, the “Coll. IV” value ([1]; 6 ppm peptide) was “+97%” and the “Collagen I in the dermis” value ([1]; 6 ppm peptide) was “+187%”. For the same molecule, the “Coll. I” value [1, 5] was “+111%”, the “Coll. IV” value [1, 5] was “+42%” and the Fibronectin [1, 5] was “+59%”. For the same molecule, the Hyaluronic acid [1, 5] was “≈0%”, the “Collagen I in the dermis Test 1” value ([1]; 4 ppm) was “+188%” and the “Collagen I in the dermis Test 1” value ([1]; 6 ppm) was “+187%”. The Fibronectin ([1]; dermal NHF, 4 ppm peptide) was “+42%”, the Hyaluronic acid ([1]; dermal NHF, 4 ppm peptide) was “≈0%” and the Fibronectin ([1]; dermal NHF, 6 ppm peptide) was “+109%”. For the same molecule, the Hyaluronic acid ([1]; dermal NHF, 6 ppm peptide) was “+55%”, the “Collagen I in the dermis Test 2” value ([2]; 2 ppm) was “+329%” and the “Collagen I in the dermis Test 2” value ([2]; 4 ppm) was “+423%”. The “Collagen I in the dermis Test 2” value ([2]; 5 ppm) was “+486%”, the Hyaluronic acid ([3]; Table 6, 2 ppm peptide, no plant) was “+44%” and the Hyaluronic acid ([3]; Table 6, 4 ppm peptide, no plant) was “+139%”. For the same molecule, the Hyaluronic acid ([3]; Table 6, 5 ppm peptide, no plant) was “+172%”, the Hyaluronic acid ([3]; Table 6, 6 ppm peptide, no plant) was “+290%” and the Fibronectin ([3]; 4 ppm peptide) was “+35%”. For the same molecule, the Hyaluronic acid ([3]; 4 ppm peptide) was “+139%”, the Laminins ([3]; 4 ppm peptide) was “+30%” and the Fibronectin ([3]; 5 ppm peptide) was “+65%”. For the same molecule, the Hyaluronic acid ([3]; 5 ppm peptide) was “+172%”, the Laminins ([3]; 5 ppm peptide) was “+66%” and the Fibronectin ([3]; 6 ppm peptide) was “+159%”. For the same molecule, the Hyaluronic acid ([3]; 6 ppm peptide) was “+290%”, the Laminins ([3]; 6 ppm peptide) was “+172%” and the “Coll. III” value ([4]; % difference compared to the control, 35 days contact) was “+104%”. For the same molecule, the “Coll. III” value ([4]; Table 5, % difference compared to the control, no plant) was “+104%”.

In the case of CCCCCCCCCCCCCCCC(=O)N[C@@H](CCCCN)C(=O)N[C@H](C(=O)N[C@@H](Cc1ccccc1)C(=O)N[C@@H](CCCCN)C(=O)O)[C@@H](C)O [Pal-K-T-F-K-OH, reference compound] (Palmitoyl-KTFK-OH), the “Collagen I in the dermis Test 1” value ([1]; 4 ppm) is reported as “+82%” and the “Collagen I in the dermis Test 1” value ([1]; 6 ppm) is reported as “+103%”.

In the case of CCCCCCCCCCCCCCCC(=O)N[C@@H](CCCCN)C(=O)N[C@@H](CC(N)=O)C(=O)N[C@@H](CCCCN)C(=O)O [Pal-KNK-OH] (Palmitoyl-Lys-Asn-Lys-OH), the “Collagen I in the dermis” value ([1]; 5 ppm peptide) is reported as “+55%”.

CCCCCCCCCCCCCCCC(=O)N[C@@H](CCCCN)C(=O)N[C@@H](Cc1ccccc1)C(=O)N[C@@H](CCS(C)(=O)=O)C(=O)N[C@@H](CCCCN)C(=O)O [Pal-K-F-MO2-K-OH] (Palmitoyl-KF[Met(O2)]K-OH) was tested, and the “Collagen I in the dermis Test 1” value ([1]; 4 ppm) was “+80%” and the “Collagen I in the dermis Test 1” value ([1]; 6 ppm) was “+81%”.

With CCCCCCCCCCCCCCCC(=O)N[C@@H](CCCCN)C(=O)N[C@@H](CCS(C)(=O)=O)C(=O)N[C@H](C(=O)N[C@@H](CCCCN)C(=O)O)[C@@H](C)O [Pal-K-MO2-T-K-OH] (Palmitoyl-K[Met(O2)]TK-OH) the “Collagen I in the dermis Test 1” value ([1]; 4 ppm) was “+45%”, the “Collagen I in the dermis Test 1” value ([1]; 6 ppm) was “+194%” and the “Collagen I in the dermis Test 2” value ([2]; 4 ppm) was “+192%”. For the same molecule, the “Collagen I in the dermis Test 2” value ([2]; 6 ppm) was “+217%”.

With CCCCCCCCCCCCCCCC(=O)N[C@@H](CCCCN)C(=O)N[C@H](C(=O)N[C@@H](CCS(C)(=O)=O)C(=O)N[C@@H](CCCCN)C(=O)O)[C@@H](C)O [Pal-K-T-MO2-K-OH] (Palmitoyl-KT[Met(O2)]K-OH) the “Collagen I in the dermis Test 1” value ([1]; 4 ppm) was “+75%”, the “Collagen I in the dermis Test 1” value ([1]; 6 ppm) was “+161%” and the “Collagen I in the dermis Test 2” value ([2]; 2 ppm) was “+273%”. The “Collagen I in the dermis Test 2” value ([2]; 4 ppm) was “+341%” and the “Collagen I in the dermis Test 2” value ([2]; 6 ppm) was “+262%”.

For CCCCCCCCCCCCCCCC(=O)N[C@@H](CCS(C)(=O)=O)C(=O)N[C@@H](CCCCN)C(=O)O [Pal-MO2-K-OH] (Palmitoyl-[Met(O2)]-Lys-OH), the “Collagen I in the dermis Test 2” value ([2]; 2 ppm) was “+270%”, the “Collagen I in the dermis Test 2” value ([2]; 4 ppm) was “+457%” and the “Collagen I in the dermis Test 2” value ([2]; 6 ppm) was “+226%”.

For CCCCCCCCCCCCCCCC(=O)N[C@@H](CCCCN)C(=O)N[C@@H](CCSC)C(=O)N[C@@H](CCCCN)C(=O)O [Pal-KMK-OH] (Palmitoyl-Lys-Met-Lys-OH), the “Collagen I in the dermis” value ([1]; 4 ppm peptide) was “+21%”, the “Collagen I in the dermis” value ([1]; 8 ppm peptide) was “+64%” and the “Collagen I in the dermis Test 1” value ([1]; 4 ppm) was “+21%”. For the same molecule, the “Collagen I in the dermis Test 1” value ([1]; 6 ppm) was “+63%”.

For CCCCCCCCCCCCCCCC(=O)N[C@@H](CCCCN)C(=O)N[C@@H](CCS(C)(=O)=O)C(=O)NCCCCC(=O)N[C@@H](CCCCN)C(=O)O [Pal-K-MO2-Ava-K-OH] (Palmitoyl-K[Met(O2)][Ava]K-OH), the “Collagen I in the dermis Test 1” value ([1]; 2 ppm) was “+75%”.

CCCCCCCCCCCCCCCC(=O)N[C@@H](CCS(C)(=O)=O)C(=O)NCCCCC(N)=O [Pal-MO2-Ava-NH2] was tested, and the “Collagen I in the dermis Test 2” value ([2]; 2 ppm) was “+375%”, the “Collagen I in the dermis Test 2” value ([2]; 4 ppm) was “+582%” and the “Collagen I in the dermis Test 2” value ([2]; 6 ppm) was “+461%”.

In the case of CCCCCCCCCCCCCCCC(=O)N[C@@H](CCS(C)(=O)=O)C(=O)N[C@H](C(=O)N[C@@H](Cc1ccccc1)C(=O)N[C@@H](CCCCN)C(=O)O)[C@@H](C)O [Pal-MO2-T-F-K-OH] (Palmitoyl-[Met(O2)]TFK-OH), the “Collagen I in the dermis Test 1” value ([1]; 4 ppm) is reported as “+111%”, the “Collagen I in the dermis Test 1” value ([1]; 6 ppm) is reported as “+148%” and the “Collagen I in the dermis Test 2” value ([2]; 2 ppm) is reported as “+218%”. The “Collagen I in the dermis Test 2” value ([2]; 4 ppm) was “+456%” and the “Collagen I in the dermis Test 2” value ([2]; 6 ppm) was “+520%”.

CCCCCCCCCCCCCCCC(=O)N[C@@H](CCCCN)C(=O)NCCCCC(=O)N[C@@H](CCS(C)(=O)=O)C(=O)N[C@@H](CCCCN)C(=O)O [Pal-K-Ava-MO2-K-OH] (Palmitoyl-K[Ava][Met(O2)]K-OH) was tested, and the “Collagen I in the dermis Test 1” value ([1]; 2 ppm) was “+63%” and the “Collagen I in the dermis Test 1” value ([1]; 4 ppm) was “+167%”.

With CCCCCCCCCCCCCCCC(=O)NCCCCC(=O)N[C@@H](CCS(C)(=O)=O)C(N)=O [Pal-Ava-MO2-NH2] the “Collagen I in the dermis Test 2” value ([2]; 2 ppm) was “+495%”, the “Collagen I in the dermis Test 2” value ([2]; 4 ppm) was “+667%” and the “Collagen I in the dermis Test 2” value ([2]; 6 ppm) was “+557%”.

In the case of CCCCCCCCCCCCCCCC(=O)N[C@@H](CCCCN)C(=O)N[C@@H](CO)C(=O)N[C@@H](CCCCN)C(=O)O [Pal-KSK-OH, reference compound] (Palmitoyl-Lys-Ser-Lys-OH), the “Coll. I” value ([1]; 4 ppm peptide) is reported as “+46%”, the “Coll. IV” value ([1]; 4 ppm peptide) is reported as “+1%” and the Fibronectin ([1]; dermal NHF, 4 ppm peptide) is reported as “+26%”.

CCCCCCCCCCCCCCCC(=O)N[C@@H](CCCCN)C(=O)N[C@@H](C)C(=O)N[C@@H](CCCCN)C(=O)O [Pal-KAK-OH, reference compound] (Palmitoyl-Lys-Ala-Lys-OH) was tested, and the “Coll. I” value ([1]; 4 ppm peptide) was “+42%”, the “Coll. IV” value ([1]; 4 ppm peptide) was -6% and the Fibronectin ([1]; dermal NHF, 4 ppm peptide) was “+33%”.

With CCCCCCCCCCCCCCCC(=O)N[C@@H](CCCCN)C(=O)N[C@@H](CS)C(=O)N[C@@H](CCCCN)C(=O)O [Pal-KCK-OH] (Palmitoyl-Lys-Cys-Lys-OH) the “Coll. I” value ([1]; 4 ppm peptide) was “+145%”, the “Coll. IV” value ([1]; 4 ppm peptide) was -1% and the “Collagen I in the dermis” value ([1]; 4 ppm peptide) was “+145%”. For the same molecule, the “Coll. I” value ([1]; 6 ppm peptide) was “+133%”, the “Coll. IV” value ([1]; 6 ppm peptide) was “+23%” and the “Collagen I in the dermis” value ([1]; 6 ppm peptide) was “+133%”. The Fibronectin ([1]; dermal NHF, 4 ppm peptide) was “+57%” and the Fibronectin ([1]; dermal NHF, 6 ppm peptide) was “+70%”.

With CCCCCCCCCCCCCCCC(=O)N[C@@H](CCCCN)C(=O)N[C@@H](CCC(N)=O)C(=O)N[C@@H](CCCCN)C(=O)O [Pal-KQK-OH] the “Coll. I” value ([1]; 5 ppm peptide) was “+82%” and the Fibronectin ([1]; dermal NHF, 5 ppm peptide) was “+35%”.
